Data published in US11339130B1 (Blade Therapeutics, Inc., priority 2016, dated 2022).
Counter-ions that a name gives are not always drawn. Like-named read-outs stand apart in the source and are kept apart here. Each block holds one compound with its values, some of them ahead of it.

How the values were obtained:
[1] = system: Calpain activity in SH-SY5Y cells (SBDP-150); assay: SH-SY5Y Spectrin western blot assay (SBDP-150 breakdown product, A23187-induced); type: cell-based; details: Homo sapiens, SH-SY5Y cells, read-out: SH-SY5Y Spectrin IC50
[2] = system: Calpain activity in SH-SY5Y cells; assay: SH-SY5Y + AMC fluorescence assay (Suc-LLVY-AMC substrate); type: cell-based; details: read-out: SH-SY5Y + AMC IC50
Human Calpain 9/NS1 = biological target: T1, Human Calpain 9/NS1 (Homo sapiens, UniProt O14815); assay: Calpain inhibition continuous fluorescence (FRET) assay, Human Calpain 9/NS1; type: biochemical; details: read-out: Human Calpain 9/NS1 IC50
T1 sequence (O14815 1-690): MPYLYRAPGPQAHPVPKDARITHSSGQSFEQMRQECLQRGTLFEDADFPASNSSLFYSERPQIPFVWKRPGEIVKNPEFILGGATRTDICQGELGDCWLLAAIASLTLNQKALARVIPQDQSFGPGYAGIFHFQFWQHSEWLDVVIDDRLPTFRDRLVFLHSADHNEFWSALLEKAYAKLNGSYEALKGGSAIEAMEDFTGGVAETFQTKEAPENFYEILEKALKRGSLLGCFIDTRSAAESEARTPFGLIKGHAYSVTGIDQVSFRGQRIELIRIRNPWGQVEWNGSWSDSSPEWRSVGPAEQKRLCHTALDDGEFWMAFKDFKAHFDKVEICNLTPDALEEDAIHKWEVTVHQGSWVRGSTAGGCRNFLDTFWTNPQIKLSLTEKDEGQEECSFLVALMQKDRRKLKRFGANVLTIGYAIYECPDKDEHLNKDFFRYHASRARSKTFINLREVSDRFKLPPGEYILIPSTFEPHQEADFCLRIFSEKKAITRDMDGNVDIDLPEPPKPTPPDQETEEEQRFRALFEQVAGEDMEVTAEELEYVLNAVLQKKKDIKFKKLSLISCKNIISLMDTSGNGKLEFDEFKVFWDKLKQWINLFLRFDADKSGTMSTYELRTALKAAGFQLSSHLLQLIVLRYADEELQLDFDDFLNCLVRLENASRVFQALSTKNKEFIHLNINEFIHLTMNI
T1 sequence (P04632 1-268 partner): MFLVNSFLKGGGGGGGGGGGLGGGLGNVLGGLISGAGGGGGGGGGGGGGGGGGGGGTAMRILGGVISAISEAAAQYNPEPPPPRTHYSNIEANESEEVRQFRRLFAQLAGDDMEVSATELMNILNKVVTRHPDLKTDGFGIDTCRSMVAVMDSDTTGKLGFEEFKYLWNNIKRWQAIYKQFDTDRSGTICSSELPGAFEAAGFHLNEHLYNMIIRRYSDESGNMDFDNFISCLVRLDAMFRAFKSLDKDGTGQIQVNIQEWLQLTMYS
Summary of the method: (§1)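 Fluorescence increase from the cleaved 5-FAM/QXL 520 substrate, read at 490/520 nm, gave activity. Calcium was supplied with the substrate to activate the enzyme in situ after a 25C enzyme-inhibitor preincubation, and IC50s were fit from initial slopes.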

Human Calpain 2/NS1 = biological target: T2, Human Calpain 2/NS1 (Homo sapiens, UniProt P17655); assay: Calpain inhibition continuous fluorescence (FRET) assay, Human Calpain 2/NS1; type: biochemical; details: read-out: Human Calpain 2/NS1 IC50
T2 sequence (P17655 1-700): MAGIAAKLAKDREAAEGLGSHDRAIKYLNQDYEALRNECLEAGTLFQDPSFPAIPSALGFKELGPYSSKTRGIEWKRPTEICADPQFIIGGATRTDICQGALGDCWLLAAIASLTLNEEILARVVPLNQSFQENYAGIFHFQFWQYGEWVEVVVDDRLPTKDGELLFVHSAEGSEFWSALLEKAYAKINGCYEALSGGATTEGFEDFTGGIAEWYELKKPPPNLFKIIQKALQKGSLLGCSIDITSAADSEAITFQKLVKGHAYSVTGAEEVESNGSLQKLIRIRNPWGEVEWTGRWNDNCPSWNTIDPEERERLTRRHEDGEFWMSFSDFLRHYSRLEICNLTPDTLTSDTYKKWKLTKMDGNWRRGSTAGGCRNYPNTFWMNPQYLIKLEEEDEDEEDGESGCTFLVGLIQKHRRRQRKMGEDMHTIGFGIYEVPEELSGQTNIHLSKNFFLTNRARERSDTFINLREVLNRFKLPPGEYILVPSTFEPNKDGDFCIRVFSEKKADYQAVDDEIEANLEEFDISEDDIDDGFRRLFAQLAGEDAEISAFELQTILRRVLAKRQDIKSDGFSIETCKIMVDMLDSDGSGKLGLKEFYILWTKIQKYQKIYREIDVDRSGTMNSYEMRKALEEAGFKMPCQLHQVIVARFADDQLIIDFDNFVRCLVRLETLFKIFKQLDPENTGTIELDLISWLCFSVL
T2 sequence (P04632 1-268 partner): T1 sequence (P04632 1-268 partner)
Summary of the method: as §1

Human Calpain 1/NS1 = biological target: T3, Human Calpain 1/NS1 (Homo sapiens, UniProt P07384); assay: Calpain inhibition continuous fluorescence (FRET) assay, Human Calpain 1/NS1; type: biochemical; details: read-out: Human Calpain 1/NS1 IC50
T3 sequence (P07384 1-714): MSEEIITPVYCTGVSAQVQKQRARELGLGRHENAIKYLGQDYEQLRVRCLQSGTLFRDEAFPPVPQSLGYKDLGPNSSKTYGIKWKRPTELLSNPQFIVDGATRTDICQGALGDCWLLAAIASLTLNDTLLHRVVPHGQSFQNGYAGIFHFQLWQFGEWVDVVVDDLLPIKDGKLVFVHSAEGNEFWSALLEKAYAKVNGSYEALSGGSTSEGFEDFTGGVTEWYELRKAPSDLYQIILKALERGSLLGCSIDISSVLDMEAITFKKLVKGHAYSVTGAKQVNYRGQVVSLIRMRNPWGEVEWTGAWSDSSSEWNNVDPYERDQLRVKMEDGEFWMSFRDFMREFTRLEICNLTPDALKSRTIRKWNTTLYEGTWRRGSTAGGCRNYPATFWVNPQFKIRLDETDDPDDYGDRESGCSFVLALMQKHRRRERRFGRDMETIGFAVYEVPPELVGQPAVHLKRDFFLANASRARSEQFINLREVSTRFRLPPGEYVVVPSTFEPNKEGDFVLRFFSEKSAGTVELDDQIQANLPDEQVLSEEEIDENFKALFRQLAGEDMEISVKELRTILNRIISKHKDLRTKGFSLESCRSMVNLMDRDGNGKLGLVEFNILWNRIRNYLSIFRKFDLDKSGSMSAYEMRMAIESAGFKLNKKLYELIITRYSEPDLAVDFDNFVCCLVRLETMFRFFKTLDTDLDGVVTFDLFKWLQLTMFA
T3 sequence (P04632 1-268 partner): T1 sequence (P04632 1-268 partner)
Summary of the method: as §1

[3] = A23187-induced SBDP-150, western blot
[4] = Column D, A23187-induced SBDP-150

Compound: Cc1ccncc1-c1nn(C(F)F)cc1C(=O)NC(Cc1ccccc1)C(=O)C(N)=O (stereo not shown) [Compound 522, N-(4-amino-3,4-dioxo-1-phenylbutan-2-yl)-1-(difluoromethyl)-3-(4-methylpyridin-3-yl)-1H-pyrazole-4-carboxamide]
IC50 [1, 3]: > 25 µM
IC50 [2]: < 10 µM
IC50 (Human Calpain 9/NS1): < 3 µM
IC50 (Human Calpain 2/NS1): < 3 µM
IC50 (Human Calpain 1/NS1): < 3 µM

Compound: NC(=O)C(=O)C(Cc1ccccc1)NC(=O)c1c(Cl)cnn1-c1ncccn1 (stereo not shown) [Compound 347, N-(4-amino-3,4-dioxo-1-phenylbutan-2-yl)-4-chloro-1-(pyrimidin-2-yl)-1H-pyrazole-5-carb oxamide]
IC50 [1, 3]: 10 to 25 µM
IC50 [2]: > 25 µM
IC50 (Human Calpain 9/NS1): < 3 µM
IC50 (Human Calpain 2/NS1): < 3 µM
IC50 (Human Calpain 1/NS1): < 3 µM

Compound: Cn1cc(C(=O)N[C@@H](Cc2ccccc2)C(=O)C(N)=O)c(-c2cccc(C#N)c2)n1 [Compound 185, (S)—N-(4-amino-3,4-dioxo-1-phenylbutan-2-yl)-3-(3-cyanophenyl)-1-methyl-1H-pyrazole-4-carboxamide]
IC50 [1, 4]: > 25 µM
IC50 ([2]; Column E): > 25 µM
IC50 (Human Calpain 9/NS1; Column C): 3 to 10 µM
IC50 (Human Calpain 2/NS1; Column B): 3 to 10 µM
IC50 (Human Calpain 1/NS1; Column A): > 10 µM

Compound: Cc1cc(C(=O)N[C@H](C=O)Cc2ccccc2)n(-c2cnccn2)n1 [Compound 285, (S)-3-methyl-N-(1-oxo-3-phenylpropan-2-yl)-1-(pyrazin-2-yl)-1H-pyrazole-5-carboxamide]
IC50 [1, 4]: > 25 µM
IC50 ([2]; Column E): 10 to 25 µM
IC50 (Human Calpain 9/NS1; Column C): < 3 µM
IC50 (Human Calpain 2/NS1; Column B): < 3 µM
IC50 (Human Calpain 1/NS1; Column A): < 3 µM

Compound: Cc1cc(C(=O)N[C@@H](Cc2ccccc2)C(=O)C(N)=O)n(-c2ccc(CNCc3ccccc3)cc2)n1 [Compound 160, (S)—N-(4-amino-3,4-dioxo-1-phenylbutan-2-yl)-1-(4-((benzylamino)methyl)phenyl)-3-methyl-1H-pyrazole-5-carboxamide hydrochloride]
IC50 [1, 4]: 10 to 25 µM
IC50 ([2]; Column E): > 25 µM
IC50 (Human Calpain 9/NS1; Column C): < 3 µM
IC50 (Human Calpain 2/NS1; Column B): < 3 µM
IC50 (Human Calpain 1/NS1; Column A): < 3 µM

Compound: COc1cccc(-c2oncc2C(=O)NC(Cc2ccccc2)C(=O)C(N)=O)c1F (stereo not shown) [Compound 595, N-(4-amino-3,4-dioxo-1-phenylbutan-2-yl)-5-(2-fluoro-3-methoxyphenyl)isoxazole-4-carboxamide]
IC50 [1, 3]: 10 to 25 µM
IC50 [2]: > 25 µM
IC50 (Human Calpain 9/NS1): < 3 µM
IC50 (Human Calpain 2/NS1): < 3 µM
IC50 (Human Calpain 1/NS1): < 3 µM

Compound: COc1cc(C(=O)NC(Cc2ccccc2)C(=O)C(N)=O)n(-c2ccccc2)n1 (stereo not shown) [Compound 392, N-(4-amino-3,4-dioxo-1-phenylbutan-2-yl)-3-methoxy-1-phenyl-1H-pyrazole-5-carboxamide]
IC50 [1, 3]: 10 to 25 µM
IC50 [2]: < 10 µM
IC50 (Human Calpain 9/NS1): > 10 µM
IC50 (Human Calpain 2/NS1): > 10 µM
IC50 (Human Calpain 1/NS1): > 10 µM

Compound: CC(C)n1cc(C(=O)NC(Cc2ccccc2)C(=O)C(N)=O)c(-c2ccccc2F)n1 (stereo not shown) [Compound 472, N-(4-amino-3,4-dioxo-1-phenylbutan-2-yl)-3-(2-fluorophenyl)-1-isopropyl-1H-pyrazole-4-carboxamide]
IC50 [1, 3]: 10 to 25 µM
IC50 [2]: < 10 µM
IC50 (Human Calpain 9/NS1): < 3 µM
IC50 (Human Calpain 2/NS1): < 3 µM
IC50 (Human Calpain 1/NS1): < 3 µM

Compound: Cc1cc(C(=O)NC(Cc2ccccc2)C(=O)C(N)=O)c(-n2ccc(-c3ccccc3)n2)s1 (stereo not shown) [Compound 320, N-(4-amino-3,4-dioxo-1-phenylbutan-2-yl)-5-methyl-2-(3-phenyl-1H-pyrazol-1-yl)thiophene-3-carboxamide]
IC50 [1, 3]: 10 to 25 µM
IC50 [2]: > 25 µM
IC50 (Human Calpain 9/NS1): < 3 µM
IC50 (Human Calpain 2/NS1): < 3 µM
IC50 (Human Calpain 1/NS1): < 3 µM

Second part, the compound after the results:

IC50 [1, 3]: < 10 µM
IC50 [2]: 10 to 25 µM
IC50 (Human Calpain 9/NS1): < 3 µM
IC50 (Human Calpain 2/NS1): < 3 µM
IC50 (Human Calpain 1/NS1): < 3 µM
Compound: NC(=O)C(=O)C(Cc1ccccc1)NC(=O)c1nsnc1-c1cccnc1 (stereo not shown) [Compound 377, N-(4-amino-3,4-dioxo-1-phenylbutan-2-yl)-4-(pyridin-3-yl)-1,2,5-thiadiazole-3-carboxamide]

IC50 [1, 3]: < 10 µM
IC50 [2]: < 10 µM
IC50 (Human Calpain 9/NS1): < 3 µM
IC50 (Human Calpain 2/NS1): < 3 µM
IC50 (Human Calpain 1/NS1): < 3 µM
Compound: COc1cccc(-c2nn(C(F)F)cc2C(=O)NC(Cc2ccccc2)C(=O)C(N)=O)c1 (stereo not shown) [Compound 384, N-(4-amino-3,4-dioxo-1-phenylbutan-2-yl)-1-(difluoromethyl)-3-(3-methoxyphenyl)-1H-pyrazole-4-carboxamide]

IC50 [1, 3]: < 10 µM
IC50 [2]: < 10 µM
IC50 (Human Calpain 9/NS1): < 3 µM
IC50 (Human Calpain 2/NS1): < 3 µM
IC50 (Human Calpain 1/NS1): < 3 µM
Compound: NC(=O)C(=O)C(Cc1ccccc1)NC(=O)c1cn(C(F)F)nc1-c1ccccc1F (stereo not shown) [Compound 383, N-(4-amino-3,4-dioxo-1-phenylbutan-2-yl)-1-(difluoromethyl)-3-(2-fluorophenyl)-1H-pyrazole-4-carboxamide]

IC50 [1, 3]: < 10 µM
IC50 [2]: < 10 µM
IC50 (Human Calpain 9/NS1): < 3 µM
IC50 (Human Calpain 2/NS1): < 3 µM
IC50 (Human Calpain 1/NS1): < 3 µM
Compound: NC(=O)C(=O)[C@@H](Cc1ccccc1)NC(=O)c1cn(C(F)F)nc1-c1ccccc1 [Compound 380, (R)—N-(4-amino-3,4-dioxo-1-phenylbutan-2-yl)-1-(difluoromethyl)-3-phenyl-1H-pyrazole-4-carboxamide]

IC50 [1, 3]: < 10 µM
IC50 [2]: < 10 µM
IC50 (Human Calpain 9/NS1): < 3 µM
IC50 (Human Calpain 2/NS1): < 3 µM
IC50 (Human Calpain 1/NS1): < 3 µM
Compound: NC(=O)C(=O)C(Cc1ccccc1)NC(=O)c1nsnc1-c1cnccn1 (stereo not shown) [Compound 365, N-(4-amino-3,4-dioxo-1-phenylbutan-2-yl)-4-(pyrazin-2-yl)-1,2,5-thiadiazole-3-carboxamide]
